Data taken from US20250243245A1 (priority 2022, published 2025).
Where a SMILES comes first, the peptide text is derived from it.

test system: E. coli strain BL21; conditions: BL21, 24 h

| SMILES | MIC [mM] |
| --- | --- |
| CC[C@H](C)[C@H](NC(=O)[C@H](CCCNC(=N)N)NC(=O)[C@H](CCCNC(=N)N)NC(=O)[C@H](CCC(N)=O)NC(=O)[C@H](Cc1c[nH]c2ccccc12)NC(=O)[C@H](Cc1ccccc1)NC(=O)CNC(=O)[C@@H]1CCCN1C(=O)[C@H](CO)NC(=O)CNC(=O)[C@H](CCCCN)NC(=O)[C@H](CC(C)C)NC(=O)[C@H](CO)NC(=O)[C@H](CCCCN)NC(=O)[C@H](CC(C)C)NC(=O)[C@@H](NC(=O)[C@H](CCC(=O)O)NC(=O)[C@H](CC(C)C)NC(=O)[C@H](CC(C)C)NC(=O)[C@H](CCCCN)NC(=O)[C@H](CCC(N)=O)NC(=O)[C@@H]1CCCN1C(=O)[C@H](CC(C)C)NC(=O)[C@H](CCCCN)NC(=O)[C@@H](N)CCCCN)[C@@H](C)CC)C(=O)N[C@@H](CCCNC(=N)N)C(=O)N[C@@H](CCCNC(=N)N)C(=O)N[C@@H](Cc1c[nH]c2ccccc12)C(=O)N[C@@H](CCCNC(=N)N)C(=O)N[C@@H](CCCNC(=N)N)C(=O)O [UGK-21] | 1.25 to 2.5 |
| CC[C@H](C)[C@H](NC(=O)[C@H](CCCNC(=N)N)NC(=O)[C@H](CCCNC(=N)N)NC(=O)[C@H](CCC(N)=O)NC(=O)[C@H](Cc1c[nH]c2ccccc12)NC(=O)[C@H](Cc1ccccc1)NC(=O)CNC(=O)[C@@H]1CCCN1C(=O)[C@H](CO)NC(=O)CNC(=O)[C@H](Cc1ccc(O)cc1)NC(=O)[C@@H](NC(=O)[C@H](CO)NC(=O)CNC(=O)[C@H](Cc1ccc(O)cc1)NC(=O)[C@H](CO)NC(=O)CNC(=O)[C@H](CCCNC(=N)N)NC(=O)[C@H](Cc1c[nH]c2ccccc12)NC(=O)[C@H](Cc1c[nH]c2ccccc12)NC(=O)[C@H](CCCNC(=N)N)NC(=O)[C@H](Cc1c[nH]c2ccccc12)NC(=O)[C@H](Cc1c[nH]c2ccccc12)NC(=O)[C@H](CCCNC(=N)N)NC(=O)[C@@H](N)CCCNC(=N)N)C(C)C)C(=O)N[C@@H](CCCNC(=N)N)C(=O)N[C@@H](CCCNC(=N)N)C(=O)N[C@@H](Cc1c[nH]c2ccccc12)C(=O)N[C@@H](CCCNC(=N)N)C(=O)N[C@@H](CCCNC(=N)N)C(=O)O [UGI-7] (H-RRWWRWWRGSYGSVYGSPGFWQRRIRRWRR-OH; N-terminus and C-terminus assumed) | 5 to 10 |
| CC[C@H](C)[C@H](NC(=O)[C@H](CCCNC(=N)N)NC(=O)[C@H](CCCNC(=N)N)NC(=O)[C@H](CCC(N)=O)NC(=O)[C@H](Cc1c[nH]c2ccccc12)NC(=O)[C@@H](N)Cc1ccccc1)C(=O)N[C@@H](CCCNC(=N)N)C(=O)N[C@@H](CCCNC(=N)N)C(=O)N[C@@H](Cc1c[nH]c2ccccc12)C(=O)N[C@@H](CCCNC(=N)N)C(=O)N[C@@H](CCCNC(=N)N)C(=O)NCC(=O)N[C@@H](CO)C(=O)NCC(=O)N[C@@H](Cc1ccc(O)cc1)C(=O)NCC(=O)N[C@@H](CO)C(=O)N1CCC[C@H]1C(=O)NCC(=O)N[C@@H](CCCNC(=N)N)C(=O)N[C@@H](CCCNC(=N)N)C(=O)N[C@@H](Cc1c[nH]c2ccccc12)C(=O)N[C@@H](Cc1c[nH]c2ccccc12)C(=O)N[C@@H](CCCNC(=N)N)C(=O)N[C@@H](Cc1c[nH]c2ccccc12)C(=O)N[C@@H](Cc1c[nH]c2ccccc12)C(=O)N[C@@H](CCCNC(=N)N)C(=O)O [Peptide 27P-2] (H-FWQRRIRRWRRGSGYGSPGRRWWRWWR-OH; N-terminus and C-terminus assumed) | 5 to 10 |
| CC[C@H](C)[C@H](N)C(=O)N[C@@H](CCC(=O)O)C(=O)N[C@@H](CCCNC(=N)N)C(=O)N[C@@H](CO)C(=O)N[C@@H](CCCNC(=N)N)C(=O)N[C@@H](CC(N)=O)C(=O)N[C@@H](CC(C)C)C(=O)N[C@@H](CC(=O)O)C(=O)N[C@@H](Cc1c[nH]c2ccccc12)C(=O)N[C@@H](Cc1ccc(O)cc1)C(=O)N[C@@H](CCCCN)C(=O)NCC(=O)N1CCC[C@H]1C(=O)N[C@H](C(=O)N[C@@H](CC(C)C)C(=O)N[C@@H](CC(C)C)C(=O)N[C@@H](CC(=O)O)C(=O)N[C@@H](C)C(=O)N[C@@H](CC(C)C)C(=O)N[C@@H](CCCCN)C(=O)N[C@@H](CC(N)=O)C(=O)N[C@@H](CC(C)C)C(=O)N[C@@H](CC(N)=O)C(=O)N[C@@H](CCC(=O)O)C(=O)NCC(=O)N[C@@H](CCCCN)C(=O)N[C@@H](CCCNC(=N)N)C(=O)O)[C@@H](C)O [Peptide I27AB] (H-IERSRNLDWYKGPTLLDALKNLNEGKR-OH; N-terminus and C-terminus assumed) | >20 |
| CC(C)C[C@H](NC(=O)[C@H](CO)NC(=O)[C@H](CCCCN)NC(=O)[C@H](CC(C)C)NC(=O)[C@H](CCCCN)NC(=O)[C@H](CCC(N)=O)NC(=O)[C@H](CC(C)C)NC(=O)[C@H](CC(C)C)NC(=O)[C@H](CCC(=O)O)NC(=O)[C@H](CCC(=O)O)NC(=O)[C@H](CC(C)C)NC(=O)[C@H](CCCNC(=N)N)NC(=O)[C@H](CCCCN)NC(=O)[C@@H]1CCCN1C(=O)[C@@H](N)CC(C)C)C(=O)N[C@@H](CCC(=O)O)C(=O)NCC(=O)N[C@@H](CO)C(=O)N[C@@H](CCCCN)C(=O)N[C@@H](C)C(=O)N[C@@H](Cc1c[nH]cn1)C(=O)N[C@@H](CCC(=O)O)C(=O)N[C@@H](CCCCN)C(=O)N[C@@H](CC(C)C)C(=O)N[C@@H](Cc1c[nH]cn1)C(=O)N[C@@H](CC(=O)O)C(=O)N[C@@H](Cc1c[nH]c2ccccc12)C(=O)N[C@H](C(=O)N[C@@H](CCCNC(=N)N)C(=O)N[C@@H](CCCCN)C(=O)O)[C@@H](C)O [UGK-45] (H-LPKRLEELLQKLKSLEGSKAHEKLHDWTRK-OH; N-terminus and C-terminus assumed) | >20 |
| CC(C)C[C@H](NC(=O)[C@H](CCCNC(=N)N)NC(=O)[C@H](CCCNC(=N)N)NC(=O)[C@H](CCC(N)=O)NC(=O)[C@H](Cc1c[nH]c2ccccc12)NC(=O)[C@H](CCC(N)=O)NC(=O)[C@H](Cc1ccccc1)NC(=O)[C@H](C)NC(=O)[C@H](CCC(=O)O)NC(=O)[C@@H]1CCCN1C(=O)[C@H](CC(C)C)NC(=O)[C@@H](N)CCCNC(=N)N)C(=O)N[C@@H](CCCNC(=N)N)C(=O)N[C@@H](CCCNC(=N)N)C(=O)N[C@@H](Cc1c[nH]c2ccccc12)C(=O)N[C@@H](CCCNC(=N)N)C(=O)N[C@@H](CCCNC(=N)N)C(=O)N1CCC[C@H]1C(=O)N[C@@H](CC(=O)O)C(=O)N[C@@H](CO)C(=O)N1CCC[C@H]1C(=O)NCC(=O)N[C@@H](CCCNC(=N)N)C(=O)N[C@@H](CCCNC(=N)N)C(=O)N[C@@H](Cc1c[nH]c2ccccc12)C(=O)N[C@@H](Cc1c[nH]c2ccccc12)C(=O)N[C@@H](CCCNC(=N)N)C(=O)N[C@@H](Cc1c[nH]c2ccccc12)C(=O)N[C@@H](Cc1c[nH]c2ccccc12)C(=O)N[C@@H](CCCNC(=N)N)C(=O)O [UGK-5] (H-RLPEAFQWQRRLRRWRRPDSPGRRWWRWWR-OH; N-terminus and C-terminus assumed) | 5 to 10 |
| CC[C@H](C)[C@H](NC(=O)[C@H](CC(N)=O)NC(=O)[C@H](CCCNC(=N)N)NC(=O)[C@H](CCC(N)=O)NC(=O)[C@H](Cc1c[nH]c2ccccc12)NC(=O)[C@H](CCC(N)=O)NC(=O)[C@@H](N)Cc1ccccc1)C(=O)N[C@@H](CCCNC(=N)N)C(=O)N[C@@H](CCCCN)C(=O)N[C@H](C(=O)N[C@@H](CCCNC(=N)N)C(=O)O)C(C)C [Peptide 11P-2, FQWORNIRKVR, reference compound] (H-FQWQRNIRKVR-OH) | >20 |
| CC[C@H](C)[C@H](NC(=O)[C@H](CCCCN)NC(=O)[C@H](CC(C)C)NC(=O)[C@@H](NC(=O)[C@H](CCCCN)NC(=O)[C@H](CCCCN)NC(=O)[C@@H](NC(=O)[C@H](CC(C)C)NC(=O)[C@H](CCCCN)NC(=O)[C@H](CCCCN)NC(=O)CNC(=O)[C@@H]1CCCN1C(=O)[C@H](CO)NC(=O)CNC(=O)[C@H](Cc1ccc(O)cc1)NC(=O)CNC(=O)[C@H](CO)NC(=O)CNC(=O)[C@H](CCCNC(=N)N)NC(=O)[C@H](CCCNC(=N)N)NC(=O)[C@H](Cc1c[nH]c2ccccc12)NC(=O)[C@H](CCCNC(=N)N)NC(=O)[C@H](CCCNC(=N)N)NC(=O)[C@@H](NC(=O)[C@H](CCCNC(=N)N)NC(=O)[C@H](CCCNC(=N)N)NC(=O)[C@H](CCC(N)=O)NC(=O)[C@H](Cc1c[nH]c2ccccc12)NC(=O)[C@@H](N)Cc1ccccc1)[C@@H](C)CC)[C@@H](C)CC)[C@@H](C)CC)C(=O)N[C@@H](CC(C)C)C(=O)O [Peptide 30P-2] (H-FWQRRIRRWRRGSGYGSPGKKLIKKILKIL-OH; N-terminus and C-terminus assumed) | 1.25 to 2.5 |
| CC[C@H](C)[C@H](N)C(=O)N[C@@H](CCC(=O)O)C(=O)N[C@@H](CCCNC(=N)N)C(=O)N[C@@H](CO)C(=O)N[C@@H](CCCNC(=N)N)C(=O)N[C@@H](CC(N)=O)C(=O)N[C@@H](CC(C)C)C(=O)N[C@@H](CC(=O)O)C(=O)N[C@@H](Cc1c[nH]c2ccccc12)C(=O)N[C@@H](Cc1ccc(O)cc1)C(=O)N[C@@H](CCCCN)C(=O)NCC(=O)N1CCC[C@H]1C(=O)N[C@H](C(=O)N[C@@H](CC(C)C)C(=O)N[C@@H](CC(C)C)C(=O)N[C@@H](CC(=O)O)C(=O)N[C@@H](C)C(=O)N[C@@H](CC(C)C)C(=O)N[C@@H](CCCCN)C(=O)N[C@@H](CC(N)=O)C(=O)N[C@@H](CC(C)C)C(=O)N[C@@H](CC(N)=O)C(=O)N[C@@H](CCC(=O)O)C(=O)NCC(=O)N[C@@H](CCCCN)C(=O)N[C@@H](CCCNC(=N)N)C(=O)N1CCC[C@H]1C(=O)N[C@@H](CO)C(=O)N[C@@H](CC(=O)O)C(=O)N[C@@H](CCCCN)C(=O)O)[C@@H](C)O [Peptide I31LB] (H-IERSRNLDWYKGPTLLDALKNLNEGKRPSDK-OH; N-terminus and C-terminus assumed) | >20 |
| CC[C@H](C)[C@H](NC(=O)[C@H](CCCCN)NC(=O)[C@H](CC(C)C)NC(=O)[C@@H](NC(=O)[C@H](CCCCN)NC(=O)[C@H](CCCCN)NC(=O)[C@@H](NC(=O)[C@H](CC(C)C)NC(=O)[C@H](CCCCN)NC(=O)[C@@H](N)CCCCN)[C@@H](C)CC)[C@@H](C)CC)C(=O)N[C@@H](CC(C)C)C(=O)NCC(=O)N[C@@H](CO)C(=O)NCC(=O)N[C@@H](Cc1ccc(O)cc1)C(=O)NCC(=O)N[C@@H](CO)C(=O)N1CCC[C@H]1C(=O)NCC(=O)N[C@@H](Cc1ccccc1)C(=O)N[C@@H](Cc1c[nH]c2ccccc12)C(=O)N[C@@H](CCC(N)=O)C(=O)N[C@@H](CCCNC(=N)N)C(=O)N[C@@H](CCCNC(=N)N)C(=O)N[C@H](C(=O)N[C@@H](CCCNC(=N)N)C(=O)N[C@@H](CCCNC(=N)N)C(=O)N[C@@H](Cc1c[nH]c2ccccc12)C(=O)N[C@@H](CCCNC(=N)N)C(=O)N[C@@H](CCCNC(=N)N)C(=O)O)[C@@H](C)CC [Peptide 30P-1] | 1.25 to 2.5 |
